Patent US8999967B2, “Tricyclic fused ring inhibitors of hepatitis C” (Presidio Pharmaceuticals, Inc., priority 2010, dated 2015)
pEC50: −log10 of the molar value.

Tested on: HCV 1b_Huh-Luc/Neo-ET cell line (genotype 1b replicon in Huh 7 cells)
Assay: HCV replicon assay (luciferase readout)
Type: cell-based
Settings: Hepatitis C virus, HCV 1b replicon in Huh 7 cells, 72 h incubation, EC50 range class, read-out: Inhibition of HCV genotype 1b
Summary of the method: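 Huh 7 cells stably carrying a bicistronic genotype 1b luciferase replicon were treated in triplicate the day after plating and incubated 72 h before luciferase read-out. Signal was expressed as % of untreated control, and EC50 was fitted by four-parameter logistic and averaged over repeat determinations.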

Row | Compound | pEC50
1 | COC(=O)N[C@@H](C)C(=O)N1CCC[C@H]1c1ncc(-c2ccc3oc4cc(-c5cnc([C@@H]6CCCN6C(=O)[C@@H](NC(=O)OC)C(C)C)[nH]5)ccc4c(=O)c3c2)[nH]1 [Example 20] | > 9.00
2 | COC(=O)N[C@H](C(=O)N1CCC[C@H]1c1ncc(-c2ccc3oc4cc(-c5cnc([C@@H]6CCCN6C(=O)[C@H](NC(=O)OC6CCOCC6)c6ccccc6)[nH]5)ccc4c(=O)c3c2)[nH]1)C(C)C [Example 21] | > 9.00
3 | COC(=O)N[C@H](C(=O)N1CCC[C@H]1c1ncc(-c2ccc3oc4cc(-c5cnc([C@@H]6CCCN6C(=O)[C@@H](NC(=O)OC)C(C)C)[nH]5)c(F)cc4c(=O)c3c2)[nH]1)C(C)C [Example 22] | > 9.00
4 | COC(=O)N[C@H](C(=O)N1CCC[C@H]1c1ncc(-c2ccc3oc4cc(-c5cnc([C@@H]6CCCN6C(=O)[C@@H](NC(=O)OC)C6CCOCC6)[nH]5)c(F)cc4c(=O)c3c2)[nH]1)C1CCOCC1 [Example 23] | > 9.00
5 | COC(=O)N[C@@H](C(=O)N1CCC[C@H]1c1ncc(-c2ccc3oc4cc(-c5cnc([C@@H]6CCCN6C(=O)[C@H](NC(=O)OC)c6ccccc6)[nH]5)c(F)cc4c(=O)c3c2)[nH]1)c1ccccc1 [Example 24] | > 9.00
6 | O=C(N[C@@H](C(=O)N1CCC[C@H]1c1ncc(-c2ccc3oc4cc(-c5cnc([C@@H]6CCCN6C(=O)[C@H](NC(=O)OC6CCOCC6)c6ccccc6)[nH]5)c(F)cc4c(=O)c3c2)[nH]1)c1ccccc1)OC1CCOCC1 [Example 25] | > 9.00
7 | COC(=O)N[C@H](C(=O)N1CCC[C@H]1c1ncc(-c2ccc3c(c2)Oc2ccc(-c4cnc([C@@H]5CCCN5C(=O)[C@@H](NC(=O)OC)C(C)C)[nH]4)cc2C32CC2)[nH]1)C(C)C [Example 26] | > 9.00
8 | COC(=O)N[C@H](C(=O)N1CCC[C@H]1c1ncc(-c2cc3oc4ccc(-c5cnc([C@@H]6CCCN6C(=O)[C@H](NC(=O)OC)c6ccccc6)[nH]5)cc4c(=O)c3cc2F)[nH]1)C(C)C [Example 27] | > 9.00
9 | COC(=O)N[C@H](C(=O)N1CCC[C@H]1c1ncc(-c2cc3oc4ccc(-c5cnc([C@@H]6CCCN6C(=O)[C@@H](NC(=O)OC)C6CCOCC6)[nH]5)cc4c(=O)c3cc2F)[nH]1)C(C)C [Example 28] | > 9.00
10 | COC(=O)N[C@H](C(=O)N1CCC[C@H]1c1ncc(-c2cc3c(cc2F)Cc2cc(-c4cnc([C@@H]5CCCN5C(=O)[C@@H](NC(=O)OC)[C@@H](C)OC)[nH]4)ccc2O3)[nH]1)C(C)C [Example 29] | > 9.00
